Results reported in the NIST ThermoML archive (doi:10.1021/je800105r).
Numbers after ± are expanded uncertainties.

Assay: activity coefficient (dimensionless); of the first substance listed, at infinite dilution; xn = mol fraction of the nth substance listed
Conditions: Liquid, Chromatography, x1 = 0

Row | Compound | activity coefficient (303.15 K) | activity coefficient (308.15 K) | activity coefficient (313.15 K) | activity coefficient (318.15 K)
1 | C=CCCCCCC [oct-1-ene] + CCCCCCCCCCCCCC[P+](CCCCCC)(CCCCCC)CCCCCC.O=S(=O)([N-]S(=O)(=O)C(F)(F)F)C(F)(F)F | 1.11 ± 0.07 | 1.14 ± 0.07 | 1.16 ± 0.07 | 1.21 ± 0.08
2 | C1CCCCCC1 [cycloheptane] + CCCCCCCCCCCCCC[P+](CCCCCC)(CCCCCC)CCCCCC.O=S(=O)([N-]S(=O)(=O)C(F)(F)F)C(F)(F)F | 0.88 ± 0.06 | 0.91 ± 0.06 | 0.92 ± 0.06 | 0.94 ± 0.06
3 | C=CCCC [1-pentene] + CCCCCCCCCCCCCC[P+](CCCCCC)(CCCCCC)CCCCCC.O=S(=O)([N-]S(=O)(=O)C(F)(F)F)C(F)(F)F | 0.78 ± 0.05 | 0.8 ± 0.05 | 0.82 ± 0.05 | 0.85 ± 0.05
4 | CCCCCC [hexane] + CCCCCCCCCCCCCC[P+](CCCCCC)(CCCCCC)CCCCCC.O=S(=O)([N-]S(=O)(=O)C(F)(F)F)C(F)(F)F | 1.09 ± 0.07 | 1.1 ± 0.07 | 1.13 ± 0.07 | 1.17 ± 0.07
5 | C=CCCCC [hex-1-ene] + CCCCCCCCCCCCCC[P+](CCCCCC)(CCCCCC)CCCCCC.O=S(=O)([N-]S(=O)(=O)C(F)(F)F)C(F)(F)F | 0.88 ± 0.06 | 0.9 ± 0.06 | 0.92 ± 0.06 | 0.97 ± 0.06
6 | C#CCCCCC [1-heptyne] + CCCCCCCCCCCCCC[P+](CCCCCC)(CCCCCC)CCCCCC.O=S(=O)([N-]S(=O)(=O)C(F)(F)F)C(F)(F)F | 0.59 ± 0.04 | 0.63 ± 0.04 | 0.66 ± 0.05 | 0.7 ± 0.05
7 | CCCCCCC [heptane] + CCCCCCCCCCCCCC[P+](CCCCCC)(CCCCCC)CCCCCC.O=S(=O)([N-]S(=O)(=O)C(F)(F)F)C(F)(F)F | 1.26 ± 0.08 | 1.27 ± 0.08 | 1.3 ± 0.08 | 1.33 ± 0.09
8 | C1CCCCC1 [cyclohexane] + CCCCCCCCCCCCCC[P+](CCCCCC)(CCCCCC)CCCCCC.O=S(=O)([N-]S(=O)(=O)C(F)(F)F)C(F)(F)F | 0.78 ± 0.05 | 0.8 ± 0.05 | 0.82 ± 0.05 | 0.85 ± 0.05
9 | C1CCCC1 [cyclopentane] + CCCCCCCCCCCCCC[P+](CCCCCC)(CCCCCC)CCCCCC.O=S(=O)([N-]S(=O)(=O)C(F)(F)F)C(F)(F)F | 0.68 ± 0.05 | 0.69 ± 0.05 | 0.71 ± 0.05 | 0.73 ± 0.05
10 | CCCO [propan-1-ol] + CCCCCCCCCCCCCC[P+](CCCCCC)(CCCCCC)CCCCCC.O=S(=O)([N-]S(=O)(=O)C(F)(F)F)C(F)(F)F | 1.42 ± 0.09 | 1.4 ± 0.09 | 1.39 ± 0.09 | 1.38 ± 0.09
11 | CCO [ethanol] + CCCCCCCCCCCCCC[P+](CCCCCC)(CCCCCC)CCCCCC.O=S(=O)([N-]S(=O)(=O)C(F)(F)F)C(F)(F)F | 1.36 ± 0.09 | 1.33 ± 0.09 | 1.31 ± 0.09 | 1.3 ± 0.08
12 | C#CCCCCCC [1-octyne] + CCCCCCCCCCCCCC[P+](CCCCCC)(CCCCCC)CCCCCC.O=S(=O)([N-]S(=O)(=O)C(F)(F)F)C(F)(F)F | 0.53 ± 0.04 | 0.55 ± 0.04 | 0.58 ± 0.04 | 0.63 ± 0.04
13 | CCCCC [pentane] + CCCCCCCCCCCCCC[P+](CCCCCC)(CCCCCC)CCCCCC.O=S(=O)([N-]S(=O)(=O)C(F)(F)F)C(F)(F)F | 0.94 ± 0.06 | 0.96 ± 0.06 | 0.99 ± 0.06 | 1.02 ± 0.06
14 | CCCCCCCC [octane] + CCCCCCCCCCCCCC[P+](CCCCCC)(CCCCCC)CCCCCC.O=S(=O)([N-]S(=O)(=O)C(F)(F)F)C(F)(F)F | 1.32 ± 0.09 | 1.36 ± 0.09 | 1.4 ± 0.09 | 1.46 ± 0.1
15 | CO [methanol] + CCCCCCCCCCCCCC[P+](CCCCCC)(CCCCCC)CCCCCC.O=S(=O)([N-]S(=O)(=O)C(F)(F)F)C(F)(F)F | 1.26 ± 0.08 | 1.24 ± 0.08 | 1.23 ± 0.08 | 1.23 ± 0.08
16 | C#CCCCC [1-hexyne] + CCCCCCCCCCCCCC[P+](CCCCCC)(CCCCCC)CCCCCC.O=S(=O)([N-]S(=O)(=O)C(F)(F)F)C(F)(F)F | 0.66 ± 0.05 | 0.68 ± 0.05 | 0.71 ± 0.05 | 0.74 ± 0.05
17 | c1ccccc1 [benzene] + CCCCCCCCCCCCCC[P+](CCCCCC)(CCCCCC)CCCCCC.O=S(=O)([N-]S(=O)(=O)C(F)(F)F)C(F)(F)F | 0.38 ± 0.03 | 0.39 ± 0.03 | 0.4 ± 0.03 | 0.42 ± 0.04
18 | C=CCCCCC [1-heptene] + CCCCCCCCCCCCCC[P+](CCCCCC)(CCCCCC)CCCCCC.O=S(=O)([N-]S(=O)(=O)C(F)(F)F)C(F)(F)F | 1 ± 0.06 | 1.02 ± 0.06 | 1.04 ± 0.07 | 1.09 ± 0.07
